The supplement of paper PMC5579334

Key:
[1] = tested on: HS-Sch-2; experiment: relative IC50 (inflection point of fitted dose-response curve, CellTiter-Glo viability, 72 h; top asymptote may be below 50% inhibition); higher = less potent
Outline: (§1)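 MPNST cell lines and primary human Schwann cells (750–1000 cells per well) went into 384-well plates preprinted with each compound at five concentrations in 10-fold steps. Plates were incubated 72 h at 37 °C, 5% CO2. Viability was read as CellTiter-Glo ATP luminescence, scaled between vehicle and positive-control wells, with duplicates averaged where present. Percent inhibition is at the top concentration; drug sensitivity score and relative IC50 (censored at top concentration) come from four-parameter logistic fits.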

[2] = tested on: HS-PSS; experiment: as above
Outline: as §1

[3] = tested on: HS-PSS; experiment: relative IC50 (inflection point of fitted dose-response curve, CellTox-Green cytotoxicity, 72 h; top asymptote may be below 50%); higher = less potent
Outline: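 MPNST cell lines and primary human Schwann cells were incubated 72 h at 37 °C in 384-well plates holding five 10-fold compound dilutions. CellTox-Green was added before seeding at a final 1:1000 dilution and reported fluorescence from DNA released by disrupted cells. Signals were scaled to vehicle and positive-control wells, and cultures failing plate quality control were dropped. Drug sensitivity score and relative IC50 come from four-parameter logistic fits, with IC50 censored at the top concentration.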

[4] = tested on: YST-1; experiment: relative IC50 (inflection point of fitted dose-response curve, CellTiter-Glo viability, 72 h; top asymptote may be below 50% inhibition); higher = less potent
Outline: as §1

## OC(CC1c2ccccc2-c2cncn21)C1CCCCC1 (stereo not given) [NLG919]
[1]
  relative IC50: > 10 µM
[2]
  relative IC50: > 10 µM
[3]
  relative IC50: > 10 µM

## CNC(=O)c1ccc(-c2cnc3ncc(Cc4ccc5ncccc5c4)n3n2)cc1F [NVP-INC280]
[2]
  relative IC50: > 1 µM
[3]
  relative IC50: > 1 µM

## COc1ccc(COc2cc3oc(=O)c4cc(C(C)O)ccc4c3cc2OC)cc1 (stereo not given) [Palomid-529]
[1]
  relative IC50: > 10 µM
[2]
  relative IC50: > 10 µM
[3]
  relative IC50: > 10 µM

## Nc1nc2[nH]cc(CCc3ccc(C(=O)N[C@@H](CCC(=O)O)C(=O)O)cc3)c2c(=O)[nH]1 [Pemetrexed]
[1]
  relative IC50: 0.0641 µM
[2]
  relative IC50: > 10 µM
[3]
  relative IC50: > 10 µM

## FC(F)(F)c1ccc(CNc2ccc(Cc3c[nH]c4ncc(Cl)cc34)cn2)cn1 [Pexidartinib]
[2]
  relative IC50: 1.74 µM
[3]
  relative IC50: > 10 µM

## C=CC(=O)N1CCC(Oc2cc3c(Nc4ccc(Cl)c(Cl)c4F)ncnc3cc2OC)CC1 [Poziotinib]
[1]
  relative IC50: > 1 µM
[2]
  relative IC50: > 1 µM
[3]
  relative IC50: > 1 µM

## CC[C@H](C)C(=O)O[C@H]1C[C@H](O)C=C2C=C[C@H](C)[C@H](CC[C@@H](O)C[C@@H](O)CC(=O)O)[C@H]21 [Pravastatin]
[1]
  relative IC50: > 10 µM
[4]
  relative IC50: > 10 µM
[3]
  relative IC50: > 10 µM

## Cc1nc(=O)c2cc(CN(C)c3ccc(C(=O)N[C@@H](CCC(=O)O)C(=O)O)s3)ccc2[nH]1 [Raltitrexed]
[1]
  relative IC50: 0.0227 µM
[4]
  relative IC50: 0.0112 µM
[3]
  relative IC50: > 1 µM

## O=C(Nc1cccc(Cl)c1)Nc1ncc(CCNc2ncnc3ccsc23)s1 [SNS-314]
[1]
  relative IC50: 0.185 µM
[4]
  relative IC50: 0.00884 µM
[3]
  relative IC50: > 1 µM

## CNC(=O)CN1CCC(Oc2cc3c(Nc4cccc(Cl)c4F)ncnc3cc2OC)CC1 [Sapitinib]
[2]
  relative IC50: > 1 µM
[3]
  relative IC50: > 1 µM

## Cc1cc(C)c(/C=C2\C(=O)Nc3ccccc32)[nH]1 [Semaxanib]
[1]
  relative IC50: > 10 µM
[2]
  relative IC50: > 10 µM
[3]
  relative IC50: 2.28 µM

## Cc1c(C(=O)Nc2ccc(N3C[C@@H](C)O[C@@H](C)C3)nc2)cccc1-c1ccc(OC(F)(F)F)cc1 [Sonidegib]
[4]
  relative IC50: > 10 µM
[2]
  relative IC50: 0.76 µM
[3]
  relative IC50: > 10 µM

## N#Cc1c(Oc2ccc(F)c(NC(=O)Cc3cccc(C(F)(F)F)c3)c2)ccc2nc(NC(=O)C3CC3)sc12 [TAK-632]
[1]
  relative IC50: 3.86 µM
[2]
  relative IC50: 3.98 µM
[3]
  relative IC50: > 10 µM

## Nc1nc(N)c2nc(-c3cccc(O)c3)c(-c3cccc(O)c3)nc2n1 [TG100-115]
[2]
  relative IC50: > 10 µM
[3]
  relative IC50: > 10 µM

## NC(=O)Nc1sc(-c2ccc(F)cc2)cc1C(N)=O [TPCA-1]
[4]
  relative IC50: 4.33 µM
[2]
  relative IC50: 3.98 µM
[3]
  relative IC50: > 25 µM

## Cn1ncnc1[C@H]1c2n[nH]c(=O)c3cc(F)cc(c23)N[C@@H]1c1ccc(F)cc1 [Talazoparib]
[1]
  relative IC50: 0.105 µM
[4]
  relative IC50: 0.00915 µM
[3]
  relative IC50: > 1 µM

## C[C@@H]1CN(Cc2ccc(F)cc2)[C@@H](C)CN1C(=O)c1cc2c(C(=O)C(=O)N(C)C)cn(C)c2cc1Cl [Talmapimod]
[1]
  relative IC50: > 10 µM
[4]
  relative IC50: 0.283 µM
[3]
  relative IC50: > 10 µM

## O[C@H]1CC[C@H](Nc2ncc3nc(Nc4c(F)cc(F)cc4F)n([C@H]4CCOC4)c3n2)CC1 [Tanzisertib]
[1]
  relative IC50: > 10 µM
[2]
  relative IC50: > 10 µM
[3]
  relative IC50: > 10 µM

## Cc1nc(-c2cn3c(n2)-c2ccc(-c4cnn(C(C)(C)C(N)=O)c4)cc2OCC3)n(C(C)C)n1 [Taselisib]
[4]
  relative IC50: 0.0249 µM
[2]
  relative IC50: 0.425 µM
[3]
  relative IC50: > 1 µM

## CNC(=O)c1cc(COc2nnc(Nc3ccc(Cl)cc3)c3ccoc23)ccn1 [Telatinib]
[1]
  relative IC50: > 10 µM
[2]
  relative IC50: > 10 µM
[3]
  relative IC50: > 10 µM

## COC(=O)c1ccc2c(c1)[nH]c1ncnc(NCCCN3CCCCC3)c12 [UM729]
[1]
  relative IC50: 3.14 µM
[4]
  relative IC50: 0.56 µM
[3]
  relative IC50: > 10 µM

## NC(=O)c1cccc(-c2cccc(OC(=O)NC3CCCCC3)c2)c1 [URB597]
[1]
  relative IC50: > 1 µM
[4]
  relative IC50: > 1 µM
[3]
  relative IC50: > 1 µM

## CS(=O)(=O)c1ccc(-c2cnc(N)c(C(=O)Nc3ccccc3)n2)cc1 [VE-821]
[1]
  relative IC50: > 10 µM
[4]
  relative IC50: > 10 µM
[3]
  relative IC50: > 10 µM

## O=C(O)CC1CC(c2ccccc2)=NO1 (stereo not given) [VGX-1027]
[4]
  relative IC50: > 10 µM
[2]
  relative IC50: > 10 µM
[3]
  relative IC50: > 10 µM

## O=C(Nc1ccc(-c2ccnc(Nc3ccc(N4CCOCC4)cc3)n2)cc1)[C@H]1CCCN1 [XL019]
[2]
  relative IC50: 2.85 µM
[3]
  relative IC50: > 10 µM
